Source: patent publication USRE47302E1 (ONYX THERAPEUTICS INC., priority 2013, dated 2019)
Values after ≈ are worked out from the molar mass of the structure shown.

How the values were obtained:
[1] = molecular target: T1, proteasome subunit β5 (beta5) (Homo sapiens, UniProt P28074); experiment: Proteasome active-site ELISA (ProCISE), beta5, MOLT-4 lysate; format: biochemical; settings: MOLT4 lysate, human, 1 h continuous treatment, 25° C.
T1 construct: Lysate from the human acute lymphoblastic leukemia cell line, MOLT-4; endogenous in cells; host or cells: MOLT-4
Outline: (§1)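 MOLT-4 cell lysate treated 1 h at 25 °C with compound; probe-bound subunits denatured, pulled down on streptavidin beads and detected with subunit-specific antibodies plus HRP chemiluminescence.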

Solubility pH 7 = settings: pH 7, aqueous buffer
[2] = molecular target: human constitutive 20S proteasome (c20S) (Homo sapiens, UniProt P28074); experiment: 20S proteasome assay, chymotrypsin-like activity (succinyl-Leu-Leu-Val-Tyr-AMC), c20S; format: biochemical; settings: LLVY substrate, 1 h continuous
Description: (§2) Assay buffer consisted of TE buffer [20 mmol/L Tris (pH 8.0), 0.5 mmol/L EDTA] with (20S) or without (cell lysate) 0.03% SDS. Reactions were initiated by enzyme or lysate addition and monitored for AMC product formation at 27jC with a plate-based spectofluorometer (Tecan).

[3] = molecular target: T2, immunoproteasome subunit LMP7 (Homo sapiens, UniProt P28062); experiment: Proteasome active-site ELISA (ProCISE), LMP7, MOLT-4 lysate; format: biochemical; settings: MOLT4 lysate, 1 h continuous treatment, 25° C.
T2 construct: Lysate from the human acute lymphoblastic leukemia cell line, MOLT-4; endogenous in cells; host or cells: MOLT-4
Outline: as §1

[4] = molecular target: human 20S immunoproteasome (i20S) (Homo sapiens, UniProt P28062); experiment: 20S proteasome assay, chymotrypsin-like activity (succinyl-Leu-Leu-Val-Tyr-AMC), i20S; format: biochemical; settings: LLVY substrate, 1 h continuous
Description: as §2

physchem = settings: pH 7, aqueous buffer

Row | SMILES | IC50 [1] [nM] | solubility (Solubility pH 7) [µg/mL] | IC50 [2] [nM] | IC50 [3] [nM] | IC50 [4] [nM] | solubility (physchem) [µg/mL]
1 | COc1ccc(C[C@H](NC(=O)[C@@H](C)NC(=O)[C@H]2CC[C@@H](O)CC2)C(=O)N[C@@H](CC2=CCCC2)C(=O)[C@@]2(C)CO2)cc1 [Compound C-1056, (1s,4S)-N-((R)-1-(((S)-1-(((S)-3-(cyclopent-1-en-1-yl)-1-((R)-2-methyloxiran-2-yl)-1-oxopropan-2-yl)amino)-3-(4-methoxyphenyl)-1-oxopropan-2-yl)amino)-1-oxopropan-2-yl)-4-hydroxycyclohexanecarboxamide] | 17.4 | 298 (≈ 523 µM) | 46.8 | 2.72 | 4.7 | 
2 | COc1ccc(C[C@H](NC(=O)[C@@H](C)NC(=O)[C@H]2CC[C@H](O)CC2)C(=O)N[C@@H](CC2=CCCC2)C(=O)[C@@]2(C)CO2)cc1 [Compound C-1057, (1r,4R)-N-((R)-1-(((S)-1-(((S)-3-(cyclopent-1-en-1-yl)-1-((R)-2-methyloxiran-2-yl)-1-oxopropan-2-yl)amino)-3-(4-methoxyphenyl)-1-oxopropan-2-yl)amino)-1-oxopropan-2-yl)-4-hydroxycyclohexanecarboxamide] | 2550 | 491 (≈ 862 µM) | 595 | 34 | 5.3 | 
3 | COc1ccc(C[C@H](NC(=O)[C@@H](C)NC(=O)C2CCOCC2)C(=O)N[C@@H](CC2CCCC2)C(=O)[C@@]2(C)CO2)cc1O [Compound C-1061, N-((R)-1-(((S)-1-(((S)-3-cyclopentyl-1-((R)-2-methyloxiran-2-yl)-1-oxopropan-2-yl)amino)-3-(3-hydroxy-4-methoxyphenyl)-1-oxopropan-2-yl)amino)-1-oxopropan-2-yl)tetrahydro-2H-pyran-4-carboxamide] | 978 | 2050 (≈ 3580 µM) | 756 | 70.8 | 15.4 | 
4 | COc1ccc(C[C@H](NC(=O)[C@@H](C)NC(=O)C2CCOCC2)C(=O)N[C@@H](CC2=CCCC2)C(=O)[C@@]2(C)CO2)cc1O [Compound C-1062, N-((R)-1-(((S)-1-(((S)-3-(cyclopent-1-en-1-yl)-1-((R)-2-methyloxiran-2-yl)-1-oxopropan-2-yl)amino)-3-(3-hydroxy-4-methoxyphenyl)-1-oxopropan-2-yl)amino)-1-oxopropan-2-yl)tetrahydro-2H-pyran-4-carboxamide] | 388 | 140 (≈ 245 µM) | 232 | 38.4 | 20.2 | 
5 | COc1ccc(C[C@H](NC(=O)[C@@H](C)NC(=O)C2CC3(COC3)C2)C(=O)N[C@@H](CC2=CCCC2)C(=O)[C@@]2(C)CO2)cc1 [Compound C-1063, N-((R)-1-(((S)-1-(((S)-3-(cyclopent-1-en-1-yl)-1-((R)-2-methyloxiran-2-yl)-1-oxopropan-2-yl)amino)-3-(4-methoxyphenyl)-1-oxopropan-2-yl)amino)-1-oxopropan-2-yl)-2-oxaspiro[3.3]heptane-6-carboxamide] | 443 | 1310 (≈ 2310 µM) | 169 | 90.7 | 14.9 | 
6 | COc1ccc(C[C@H](NC(=O)CNC(=O)CN2CCOCC2)C(=O)N[C@@H](Cc2ccccc2)C(=O)[C@@]2(C)CO2)cc1 [Compound C-1153, (S)-3-(4-methoxyphenyl)-N-((S)-1-((R)-2-methyloxiran-2-yl)-1-oxo-3-phenylpropan-2-yl)-2-(2-(2-morpholinoacetamido)acetamido)propanamide] | 4170 | 3270 (≈ 5780 µM) | 2430 | 208 | 278 | 
7 | COc1ccc(C[C@H](NC(=O)[C@H](CO)NC(=O)CN2CCOCC2)C(=O)N[C@@H](Cc2ccccc2)C(=O)[C@@]2(C)CO2)cc1 [Compound C-1159, (S)-3-hydroxy-N-((S)-3-(4-methoxyphenyl)-1-(((S)-1-((R)-2-methyloxiran-2-yl)-1-oxo-3-phenylpropan-2-yl)amino)-1-oxopropan-2-yl)-2-(2-morpholinoacetamido)propanamide] | 454 | 1910 (≈ 3210 µM) | 473 | 43.1 | 43 | 
8 | COc1ccc(C[C@H](NC(=O)[C@H](C)NC(=O)CN2CCOCC2)C(=O)N[C@@H](Cc2ccccc2)C(=O)[C@@]2(C)CO2)cc1OC [Compound C-1160, (S)-3-(3,4-dimethoxyphenyl)-N-((S)-1-((R)-2-methyloxiran-2-yl)-1-oxo-3-phenylpropan-2-yl)-2-((S)-2-(2-morpholinoacetamido)propanamido)propanamide] | 660 | 1530 (≈ 2500 µM) | 909 | 157 | 246 | 
9 | C[C@H](NC(=O)CN1CCOCC1)C(=O)N[C@@H](Cc1ccc(N(C)C)cc1)C(=O)N[C@@H](Cc1ccccc1)C(=O)[C@@]1(C)CO1 [Compound C-1161, (S)-3-(4-(dimethylamino)phenyl)-N-((S)-1-((R)-2-methyloxiran-2-yl)-1-oxo-3-phenylpropan-2-yl)-2-((S)-2-(2-morpholinoacetamido)propanamido)propanamide] | 409 | 2110 (≈ 3560 µM) | 807 | 51.2 | 146 | 
10 | COc1ccc(C[C@H](NC(=O)[C@H](C)NC(=O)CN2CCOCC2)C(=O)N[C@@H](Cc2ccc(O)cc2)C(=O)[C@@]2(C)CO2)cc1 [Compound C-1162, (S)-N-((S)-3-(4-hydroxyphenyl)-1-((R)-2-methyloxiran-2-yl)-1-oxopropan-2-yl)-3-(4-methoxyphenyl)-2-((S)-2-(2-morpholinoacetamido)propanamido)propanamide] | 595 | 1270 (≈ 2130 µM) | 1610 | 43.4 | 27.9 | 
11 | COc1ccc(C[C@H](NC(=O)[C@@H](NC(=O)CN2CCOCC2)[C@H](C)O)C(=O)N[C@@H](Cc2ccccc2)C(=O)[C@@]2(C)CO2)cc1 [Compound C-1174] | 150 | 1780 (≈ 2920 µM) | 161 | 22.9 | 23 | 
12 | COc1ccc(C[C@H](NC(=O)[C@H](C)NC(=O)CN2CC3CC(C2)O3)C(=O)N[C@@H](CC2CCCC2)C(=O)[C@@]2(C)CO2)cc1 [Compound C-1229, (2S)-2-((2S)-2-(2-(6-oxa-3-azabicyclo[3.1.1]heptan-3-yl)acetamido)propanamido)-N-((S)-3-cyclopentyl-1-((R)-2-methyloxiran-2-yl)-1-oxopropan-2-yl)-3-(4-methoxyphenyl)propanamide] |  |  |  |  |  | 3620 (≈ 6200 µM)
